Test results taken from US4921865A, “Aminoacylates of glycerol acetal” (Societe de Conseils de Recherches et d'Applications …, priority 1987, dated 1990).

Key:
[1] = test system: platelets (PAF induced platelet aggregation); assay: inhibition of PAF-induced platelet aggregation in platelet rich plasma; type: cell-based, New Zealand rabbits; settings: Oryctolagus cuniculus; rabbit platelet rich plasma, 2.5 nM PAF
Protocol: 1--INHIBITION OF THE PLATELETS AGGREGATION ON NEW ZEALAND RABBITS
The experimentation was conducted on platelets with plasma of New Zealand rabbits.
Blood samples were taken from auricular artery and placed in a citrate buffer (3.8 %; pH 7.4); blood was further centrifugated for 15 mn at 1200 RPM.
The tested sample was prepared in DMSO, then poured on platelets rich plasma for 1 mn, then a dose of 2.5 nM of PAF was added.
The determination is made on a Cronolog Coultronics apparatus which determines the transmission percentage corresponding to the maximum height of the peak before the desaggregation.
The percentage of variation of the inhibition with respect to the transmission percentage is calculated (control: pure DMSO).
This method was described in details in LABORATORY INVESTIGATIONS, Vol. 41, No. 3, p. 275, 1979, JEAN-PIERRE CAZENAVE, Dr. MED. , JACQUES BENVENISTE, Dr. MED., AND J. FRASER MUSTARD, M.D., "Aggregation of Rabbits Platelets by Platelet-Activating Factor Is Independent of the Release Reaction and the Arachidonate Pathway and Inhibited by Membrane-Active Drugs".
Five tests made on 5 different rabbits allowed us to calculate the IC50 of the various compounds using the linear regression test.

[2] = test system: polymorphonuclear leukocytes (PMNs); assay: antagonism of polymorphonuclear leukocyte aggregation induced by PAF; type: cell-based, rat (Wistar); settings: rat PMNs, PAF 10^-8
Protocol: Polymorphonuclear leukocytes (PMNs) were obtained as described by A. W. Ford-Hutchinson et al. (Br - J. Pharmacol. 76, 367-371, 1982). Cell suspensions ([…]) were prepared from peritoneal exudates obtained after a 5 ml IP injection of sodium caseinate 12% (w/v) to male Wistar rats, 300 g body weight.
After centrifugation, cells were washed with Hanks and resuspended in MEM/Hepes 30 mM medium (PM=7.4) at a concentration of 10^7 cells/ml. Cytochalasin B (5 μg/ml) was added 10 minutes before trigering aggregation to amplify the PMNs aggregation. The light transmittance through the cell suspension (400 μl) was measured under a 900 R/mn magnetic stirring, with a dual beam aggregometer (Chronolog Corp. Coultronics.)
The control cuvet is the cell suspension diluted to 20% of the cell count with MEM and the difference represents 100% transmittance. Change in transmittance, which occurs when PAF is added, was continuously recorded.
Drugs solubilized in MEM/Hepes were added (4 μl) to PMNs suspension 2 minutes before PAF addition.

[3] = test system: PAF-induced thrombocytopenia; assay: PAF-induced thrombocytopenia in the guinea pig; type: in vivo; settings: for Percentage Variation (thrombocytopenia): vs control; for Percentage Decrease in leukocyte number: thrombocytopenia
Protocol: (§1) Male Guinea-pig (400-500 g) were anesthetized with urethane (1.5 g/kg: IP) prior to be tracheotomized and ventilated with a respiratory pump (UGO BASILE) (70-80 breath/minute, 1 ml air/100 g/breath) to abolish spontaneous respiration a pneumothorax was performed. The resistance to inflation was measured with a pressure transducer (UGO BASILE) against an initial pressure of 10 cm H2 O according to Konzett and Rossler. Animals were allocated into groups and were treated or not by the compounds of the invention (0.05, 0.1, 0.5, 1 and 5 mg/kg).The products were given IV 1 hour before challenge with PAF.
(§2) The animals were challenged with various doses of PAF ([…]) given intravenously, and the variations in the resistance to inflation were recorded.
(§3) Blood samples were collected prior to and 1,5 and 10 minutes following to PAF-challenge. Forty μl of blood were diluted in 10 ml isoton (Coultronics, France); erythrocytes were lysed with Zapoglobin (France) prior leukocytes were counted in a coulter counter. To determine platelet number, 40 μl of blood were diluted in 2 ml isoton and centrifuged at 100 runs per minute for 30 secondes, 100 μl of the supernatant were collected and further diluted in 10 ml isoton prior counting in a coulter counter.

PAF-induced leukopenia = PAF-induced leukopenia in the guinea pig; type: in vivo; settings: for Percentage Variation (leukopenia): vs control
Protocol: as §1, §2, §3

[4] = test system: PAF-induced bronchoconstriction; assay: PAF-induced bronchoconstriction in the guinea pig; type: in vivo; settings: for Percentage Variation (bronchoconstriction): vs control
Protocol: as §1, §2

[5] = pyridinium compound 0.5, 1 and 5 mg/kg IV, quinolinium compound 0.5 and 1 mg/kg IV

IC50 [1]: 404 nM
IC50 ([2]; Leukocyte): 500 nM
Structure (SMILES): CCCCCCCCCCCCCCCCCC1(C)OCC(COC(=O)CCCCC[n+]2ccccc2)O1 (centres unmarked) [Example 9, 2-heptadecyl 2-methyl 4-[6'-(N-pyridinium)hexanoyloxymethyl] 1,3 dioxolan bromide]
inhibition of PMN aggregation (in words) [2]: dose-dependently inhibit
Percentage Variation (thrombocytopenia) ([3]; 0.05 mg/kg IV, 1 mn): -34.1%
Percentage Variation (thrombocytopenia) ([3]; 0.05 mg/kg IV, 5 mn): +1.4%
Percentage Variation (thrombocytopenia) ([3]; 0.05 mg/kg IV, 10 mn): -15.1%
Percentage Variation (thrombocytopenia) ([3]; 0.1 mg/kg IV, 1 mn): -56.1%
Percentage Variation (thrombocytopenia) ([3]; 0.1 mg/kg IV, 5 mn): -18.2%
Percentage Variation (thrombocytopenia) ([3]; 0.1 mg/kg IV, 10 mn): -0.5%
Percentage Variation (thrombocytopenia) ([3]; 0.5 mg/kg IV, 1 mn): -71.9%
Percentage Variation (thrombocytopenia) ([3]; 0.5 mg/kg IV, 5 mn): -77.4%
Percentage Variation (thrombocytopenia) ([3]; 0.5 mg/kg IV, 10 mn): -74.4%
Percentage Variation (thrombocytopenia) ([3]; 1 mg/kg IV, 1 mn): -83.2%
Percentage Variation (thrombocytopenia) ([3]; 1 mg/kg IV, 5 mn): -46.9%
Percentage Variation (thrombocytopenia) ([3]; 1 mg/kg IV, 10 mn): -50.6%
Percentage Variation (thrombocytopenia) ([3]; 5 mg/kg IV, 1 mn): -93.9%
Percentage Variation (thrombocytopenia) ([3]; 5 mg/kg IV, 5 mn): -86.8%
Percentage Variation (thrombocytopenia) ([3]; 5 mg/kg IV, 10 mn): -97.4%
inhibition of PAF-induced thrombocytopenia (in words) [3, 5]: inhibit
Percentage Decrease in leukocyte number ([3]; 0.05 mg/kg IV, 1 mn): 45.2 +/- 1.20%
Percentage Decrease in leukocyte number ([3]; 0.05 mg/kg IV, 5 mn): 43.0 +/- 4.80%
Percentage Decrease in leukocyte number ([3]; 0.05 mg/kg IV, 10 mn): 36.1 +/- 2.41%
Percentage Decrease in leukocyte number ([3]; 0.1 mg/kg IV, 1 mn): 30.1 +/- 13.72%
Percentage Decrease in leukocyte number ([3]; 0.1 mg/kg IV, 5 mn): 34.7 +/- 3.60%
Percentage Decrease in leukocyte number ([3]; 0.1 mg/kg IV, 10 mn): 42.3 +/- 4.79%
Percentage Decrease in leukocyte number ([3]; 0.5 mg/kg IV, 1 mn): 19.3 +/- 10.19%
Percentage Decrease in leukocyte number ([3]; 0.5 mg/kg IV, 5 mn): 9.6 +/- 12.15%
Percentage Decrease in leukocyte number ([3]; 0.5 mg/kg IV, 10 mn): 10.9 +/- 9.94%
Percentage Decrease in leukocyte number ([3]; 1 mg/kg IV, 1 mn): 11.5 +/- 6.21%
Percentage Decrease in leukocyte number ([3]; 1 mg/kg IV, 5 mn): 22.5 +/- 3.27%
Percentage Decrease in leukocyte number ([3]; 1 mg/kg IV, 10 mn): 21.0 +/- 3.87%
Percentage Decrease in leukocyte number ([3]; 5 mg/kg IV, 1 mn): 4.2 +/- 2.35%
Percentage Decrease in leukocyte number ([3]; 5 mg/kg IV, 5 mn): 5.6 +/- 1.84%
Percentage Decrease in leukocyte number ([3]; 5 mg/kg IV, 10 mn): 1.1 +/- 1.15%
Percentage Decrease of leukocyte number (PAF-induced leukopenia; 0.05 mg/kg IV, 1 mn): 45.3 +/- 5.70%
Percentage Variation (leukopenia) (PAF-induced leukopenia; 0.05 mg/kg IV, 1 mn): +11.0%
Percentage Decrease of leukocyte number (PAF-induced leukopenia; 0.05 mg/kg IV, 5 mn): 21.6 +/- 3.42%
Percentage Variation (leukopenia) (PAF-induced leukopenia; 0.05 mg/kg IV, 5 mn): -26.0%
Percentage Decrease of leukocyte number (PAF-induced leukopenia; 0.05 mg/kg IV, 10 mn): 14.2 +/- 17.30%
Percentage Variation (leukopenia) (PAF-induced leukopenia; 0.05 mg/kg IV, 10 mn): -57.6%
Percentage Decrease of leukocyte number (PAF-induced leukopenia; 0.1 mg/kg IV, 1 mn): 41.8 +/- 6.50%
Percentage Variation (leukopenia) (PAF-induced leukopenia; 0.1 mg/kg IV, 1 mn): +2.5%
Percentage Decrease of leukocyte number (PAF-induced leukopenia; 0.1 mg/kg IV, 5 mn): 31.9 +/- 4.88%
Percentage Variation (leukopenia) (PAF-induced leukopenia; 0.1 mg/kg IV, 5 mn): -9.2%
Percentage Decrease of leukocyte number (PAF-induced leukopenia; 0.1 mg/kg IV, 10 mn): 33.5 +/- 4.65%
Percentage Variation (leukopenia) (PAF-induced leukopenia; 0.1 mg/kg IV, 10 mn): 0.0%
Percentage Decrease of leukocyte number (PAF-induced leukopenia; 0.5 mg/kg IV, 1 mn): 34.6 +/- 6.35%
Percentage Variation (leukopenia) (PAF-induced leukopenia; 0.5 mg/kg IV, 1 mn): -15.2%
Percentage Decrease of leukocyte number (PAF-induced leukopenia; 0.5 mg/kg IV, 5 mn): 19.0 +/- 6.42%
Percentage Variation (leukopenia) (PAF-induced leukopenia; 0.5 mg/kg IV, 5 mn): -34.9%
Percentage Decrease of leukocyte number (PAF-induced leukopenia; 0.5 mg/kg IV, 10 mn): 14.6 +/- 5.36%
Percentage Decrease of leukocyte number (PAF-induced leukopenia; 1 mg/kg IV, 1 mn): 3.5 +/- 12.60%
Percentage Variation (leukopenia) (PAF-induced leukopenia; 1 mg/kg IV, 1 mn): -91.4%
Percentage Decrease of leukocyte number (PAF-induced leukopenia; 1 mg/kg IV, 5 mn): 2.9 +/- 10.51%
Percentage Variation (leukopenia) (PAF-induced leukopenia; 1 mg/kg IV, 5 mn): -90.1%
Percentage Decrease of leukocyte number (PAF-induced leukopenia; 1 mg/kg IV, 10 mn): 1.0 +/- 22.62%
Percentage Variation (leukopenia) (PAF-induced leukopenia; 1 mg/kg IV, 10 mn): -97.0%
Percentage Decrease of leukocyte number (PAF-induced leukopenia; 5 mg/kg IV, 1 mn): 16.5 +/- 2.42%
Percentage Variation (leukopenia) (PAF-induced leukopenia; 5 mg/kg IV, 1 mn): -59.6%
Percentage Decrease of leukocyte number (PAF-induced leukopenia; 5 mg/kg IV, 5 mn): 15.9 +/- 0.99%
Percentage Variation (leukopenia) (PAF-induced leukopenia; 5 mg/kg IV, 5 mn): -45.5%
Percentage Decrease of leukocyte number (PAF-induced leukopenia; 5 mg/kg IV, 10 mn): 18.7 +/- 5.08%
Percentage Variation (leukopenia) (PAF-induced leukopenia; 5 mg/kg IV, 10 mn): -44.2%
Percentage Bronchoconstriction ([4]; 0.05 mg/kg IV): 79.0 +/- 9.27%
Percentage Variation (bronchoconstriction) ([4]; 0.05 mg/kg IV): -1.0%
Percentage Bronchoconstriction ([4]; 0.1 mg/kg IV): 43.8 +/- 14.77%
Percentage Variation (bronchoconstriction) ([4]; 0.1 mg/kg IV): -45.1%
Percentage Bronchoconstriction ([4]; 0.5 mg/kg IV): 23.6 +/- 7.15%
Percentage Variation (bronchoconstriction) ([4]; 0.5 mg/kg IV): -70.4%
Percentage Bronchoconstriction ([4]; 1 mg/kg IV): 19.1 +/- 10.51%
Percentage Variation (bronchoconstriction) ([4]; 1 mg/kg IV): -76.1%
Percentage Bronchoconstriction ([4]; 5 mg/kg IV): 3.5 +/- 1.53%
Percentage Variation (bronchoconstriction) ([4]; 5 mg/kg IV): -95.6%
inhibition of PAF-induced bronchoconstriction (in words) [4, 5]: inhibit
